The values below come from patent US10030007B2, “Quinazolin-THF-amines as PDE1 inhibitors” (H. Lundbeck A/S, priority 2013, dated 2018).

What all share (assay type): biochemical
Holding throughout (conditions): 15 nM tritium labelled cAMP, 1 h at room temperature, SPA beads

One assay has as its target PDE1C (Homo sapiens, UniProt Q14123). Nature of the assay: PDE1 inhibition assay (SPA), PDE1C. As for the experimental part:
(§1) PDE1A, PDE1B and PDE1C assays were performed as follows: the assays was performed in 60 μL samples containing a fixed amount of the PDE1 enzyml (sufficient to convert 20-25% of the cyclic nucleotide substrate), a buffer (50 mM HEPES pH 7.6; 10 mM MgCl2; 0.02% Tween20), 0.1 mg/ml BSA, 15 nM tritium labelled cAMP and varying amounts of inhibitors. Reactions were initiated by addition of the cyclic nucleotide substrate, and reactions were allowed to proceed for 1 h at room temperature before being terminated through mixing with 20 μL (0.2 mg) yttrium silicate SPA beads (PerkinElmer). The beads were allowed to settle for 1 h in the dark before the plates were counted in a Wallac 1450 Microbeta counter. The measured signals were converted to activity relative to an uninhibited control (100%) and IC50 values were calculated using XlFit (model 205, IDBS).

The target in another assay is PDE1B (Homo sapiens, UniProt Q01064). Nature of the assay: PDE1 inhibition assay (SPA), PDE1B. As for the experimental part: as §1
Sequence of PDE1B (Q01064 whole entry): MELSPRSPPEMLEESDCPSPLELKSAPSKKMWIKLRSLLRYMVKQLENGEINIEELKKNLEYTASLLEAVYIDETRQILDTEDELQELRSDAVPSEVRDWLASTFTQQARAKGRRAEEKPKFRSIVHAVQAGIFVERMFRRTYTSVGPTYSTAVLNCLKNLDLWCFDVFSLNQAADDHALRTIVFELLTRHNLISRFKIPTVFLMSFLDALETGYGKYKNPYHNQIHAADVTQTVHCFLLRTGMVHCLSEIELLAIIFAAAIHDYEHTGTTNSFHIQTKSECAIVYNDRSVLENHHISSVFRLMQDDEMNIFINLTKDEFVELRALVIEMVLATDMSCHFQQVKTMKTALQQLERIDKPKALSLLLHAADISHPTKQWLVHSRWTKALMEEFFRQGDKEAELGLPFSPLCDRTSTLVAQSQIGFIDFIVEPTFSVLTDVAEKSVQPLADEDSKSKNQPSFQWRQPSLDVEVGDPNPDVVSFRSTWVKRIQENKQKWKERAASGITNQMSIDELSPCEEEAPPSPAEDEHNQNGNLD
A further assay concerns the target PDE1A (Homo sapiens, UniProt P54750). Nature of the assay: PDE1 inhibition assay (SPA), PDE1A. How it is done:
as §1

The IC50 is the point on the concentration scale where inhibition reaches its midpoint. A low value points to inhibition by little substance.

Structures are written as SMILES.

Sequence of PDE1A (P54750 whole entry): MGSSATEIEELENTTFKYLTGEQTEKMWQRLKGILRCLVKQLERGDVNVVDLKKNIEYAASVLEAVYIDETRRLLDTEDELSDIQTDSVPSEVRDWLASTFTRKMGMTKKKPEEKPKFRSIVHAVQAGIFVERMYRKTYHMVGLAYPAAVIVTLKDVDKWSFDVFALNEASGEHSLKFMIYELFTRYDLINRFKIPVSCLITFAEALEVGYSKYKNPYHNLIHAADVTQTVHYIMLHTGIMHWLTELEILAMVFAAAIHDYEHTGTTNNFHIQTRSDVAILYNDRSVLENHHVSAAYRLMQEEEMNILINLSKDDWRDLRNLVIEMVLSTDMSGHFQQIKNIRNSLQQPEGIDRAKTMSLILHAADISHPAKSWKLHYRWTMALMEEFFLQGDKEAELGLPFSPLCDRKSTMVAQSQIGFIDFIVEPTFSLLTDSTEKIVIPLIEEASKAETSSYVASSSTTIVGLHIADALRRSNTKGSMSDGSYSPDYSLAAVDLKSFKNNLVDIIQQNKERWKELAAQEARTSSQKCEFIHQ
Sequence of PDE1C (Q14123 whole entry): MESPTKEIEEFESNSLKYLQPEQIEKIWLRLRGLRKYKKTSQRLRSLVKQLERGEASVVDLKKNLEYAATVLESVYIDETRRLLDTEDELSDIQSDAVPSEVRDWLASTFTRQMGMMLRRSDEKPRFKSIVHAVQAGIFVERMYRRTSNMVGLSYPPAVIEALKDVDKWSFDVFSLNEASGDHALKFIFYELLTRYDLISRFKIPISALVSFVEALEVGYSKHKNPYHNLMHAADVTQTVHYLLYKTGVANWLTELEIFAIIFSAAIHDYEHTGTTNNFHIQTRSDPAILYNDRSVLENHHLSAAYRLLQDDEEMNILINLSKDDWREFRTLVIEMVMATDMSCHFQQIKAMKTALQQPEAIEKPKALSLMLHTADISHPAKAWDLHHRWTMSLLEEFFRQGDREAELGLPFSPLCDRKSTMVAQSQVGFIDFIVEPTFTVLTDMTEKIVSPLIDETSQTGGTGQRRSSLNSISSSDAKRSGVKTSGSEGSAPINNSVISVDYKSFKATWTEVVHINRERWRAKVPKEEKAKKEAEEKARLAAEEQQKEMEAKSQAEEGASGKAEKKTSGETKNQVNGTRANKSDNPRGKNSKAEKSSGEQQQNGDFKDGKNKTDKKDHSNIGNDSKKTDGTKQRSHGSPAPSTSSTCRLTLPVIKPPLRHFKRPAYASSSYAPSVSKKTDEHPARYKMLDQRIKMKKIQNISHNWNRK

`COc1ccc2c(N[C@@H]3CCO[C@H]3C3CC3)ncnc2c1OC` (relative stereo) [Compound 2, trans-N-(-2-cyclopropyltetrahydrofuran-3-yl)-7,8-dimethoxyquinazolin-4-amine]: the IC50 on PDE1C is 1300 nM; at PDE1B, 260 nM; on PDE1A it was 2400 nM.
The corresponding values for `COc1ccc2c(NC3CCOC3C3CC3)ncnc2c1OC` (stereo not drawn) [Compound 25, N-(2-Cyclopropyltetrahydrofuran-3-yl)-7,8-dimethoxyquinazolin-4-amine] are 1300 nM, 260 nM and 2400 nM.
